Two compounds from patent US20250325535A1, “IDENTIFICATION OF NOVEL SMALL-MOLECULE INHIBITORS OF SARS-CoV-2 BY CHEMICAL GENETICS” (The University of Hong Kong, priority 2024, published 2025) can be followed below.

In test [1] the test system is SARS-CoV-2 variants and other human coronaviruses. Nature of the test: microbe, parasite or virus in culture. The test is classed as cell-based. The settings on record: Severe acute respiratory syndrome coronavirus 2, read-out: IC50 (antiviral).
Test [2] has as its system 3CLpro S301P recombinant SARS-CoV-2. The test is classed as cell-based. The settings on record: for IC50: read-out: IC50 (plaque formation assay).
The subject of test [3] is SARS-COV-2 Alpha variant (B.1.1.7). The test is classed as in vivo, K18-hACE2 transgenic mice. The settings on record: n=5, IP once daily; 172 50 mg/kg, Nirmatrelvir 200 mg/kg; vehicle mice died day 5-6.

The structures appear in SMILES notation.

On to `CC(C)(C)[C@H](NC(=O)C(F)(F)F)C(=O)N1C[C@H]2[C@@H]([C@H]1C(=O)N[C@H](C#N)C[C@@H]1CCNC1=O)C2(C)C` [Nirmatrelvir], for which the values for the IC50 in test [1] and in test [2] were 4.5 to 32 nM and 20.1 nM, respectively. In addition, the “time of death (survival)” value in test [3] was “one mouse died on day 6, and all remaining mice died on day 8”.

On to `CCOc1cc2ncc(C#N)c(Nc3ccc(F)c(Cl)c3)c2cc1NC(=O)/C=C/CN(C)C` [Pelitinib], for which, in test [2], the “inhibition of virus replication” value is reported as “not the mutant virus” and the IC50 came out at 7300 nM.

One may read the IC50 as the concentration that gives 50% inhibition.
